US20250179033A1 (priority 2021, published 2025)
Like-named read-outs stand apart in the source and are kept apart here.

Assays:
HIV-1 IIIB (wild-type) = assay: HIV inhibition assay in TZM-bl cells, wild-type; format: cell-based; conditions: Human immunodeficiency virus 1, IIIB, read-out: IC50 (TZM, WT)
Protocol: (§1) Cells and virus culture: TZM-bl cells (42), HIV-1 IIIB virus (43-45) and HIV-1 IIIB (A17 variant) virus (46) as well are the NNRTI resistant mutants (strain NL4-3) (47) were obtained from the NIH HIV Reagent Program. H9 [derivative of HuT 78]cells (ATCC® HTB176™) were obtained from the American Type Culture Collection (Manassas, Virginia, United States of America). These viruses were grown in H9 cells to high titer, which was tested using a HIV p24 (high sensitivity) The detection kit used was sold under the tradename ALPHALISA® Detection Kit (PerkinElmer, Waltham, Massachusetts, United States of America). The viruses were concentrated using Lenti-X Concentrator (Takara Bio USA, Inc., Mountain View, California, United States of America). Infections of TZM-bl cells with either virus was facilitated with 15 μg/mL DEAE-dextran.
(§2) Compounds were serially diluted starting with 10 mM stocks in DMSO. DMSO concentrations were kept the same for all dilutions used within an assay (either 0.005% or 0.05% depending on highest concentration used). Duplicate 96-well plates were set up with 25 μL compound dilution, 25 μL virus, and 50 μL TZM-bl cells (2×10^5/mL) with DEAE-dextran and incubated at 37° C. 5% CO2 for 48 hr. All compounds were tested in triplicate, with single wells of efavirenz dilutions on each plate. All plates had 3-5 control wells without compound, 1 control well with no cells, and 1 control well with a highly toxic level of DMSO (9%). Inhibition assays were set up in clear tissue-culture treated plates with lysates moved to black assay plates or were set up in black tissue culture-treated plates. Medium was removed and the cells were lysed with Glo Lysis Buffer (Promega, Madison, Wisconsin, United States of America). Luciferase Assay System reagent (Promega, Madison, Wisconsin, United States of America) was added to cells and relative light units (RLU) was measured using an EnSpire instrument (PerkinElmer, Waltham, Massachusetts, United States of America). Toxicity assays were set up in clear tissue culture-treated plates. CellTiter-Blue Cell Viability Assay reagent (Promega) was added to the wells after 46 hr incubation, followed by 2 hr incubation. Sodium lauryl sulfate was added to 1.5% to stop the reaction and the plates were measured for fluorescence (560 nmEx/590 nmEm) using an EnSpire instrument (PerkinElmer, Waltham, Massachusetts, United States of America).

[1] = system: HIV-1 IIIB A17 variant (Y181C/K103N); assay: HIV inhibition assay in TZM-bl cells, A17 variant; format: cell-based; conditions: Human immunodeficiency virus 1, IIIB, TZM-bl
Protocol: as §1, §2

[2] = Toxicity assay in TZM-bl cells; format: cell-based; conditions: human
Protocol: as §2

TZM-bl cells = assay: Toxicity assay in TZM-bl cells; format: cell-based
Protocol: as §2

[3] = target: T1, HIV I reverse transcriptase (Human immunodeficiency virus type 1 group M subtype B, UniProt P03366); assay: Reverse transcriptase inhibition assay (Roche kit, ELISA); format: biochemical
T1 construct: purchased Roche
Protocol: NNRTI assay methods: Inhibition of HIV I reverse transcriptase was assessed via a kit from Roche (Indianapolis-Marion County, Indiana, United States of America) using the manufacture's protocol (500 μM final reverse transcriptase reaction amount). […] DMSO concentrations were kept the same for all dilutions used within an assay (0.05%). Final compound concentrations ranged from 5000 nM-0.05 nM with 2-fold serial dilutions. 96-well plates were set up with 20 μL compound dilution, 20 μL reverse transcriptase, and 20 μL template/nucleotides and incubated at 37° C. 5% CO2 for 1 hr in a reaction plate. 50 μL of each reaction was then transferred to a streptavidin conjugated 96-well plate and an ELISA assay was run based on manufacture's protocol. All compounds were tested in sextuplicate, with single wells of efavirenz dilutions on each plate.

[4] = Table 3, TZM-bl, ± SEM, minimum 6 replicates
[5] = read-out: IC50 (TZM, A17), Table 3, TZM-bl, ± SEM, minimum 6 replicates
[6] = read-out: IC50 (TZM, A17), Table 4, TZM-bl

N#Cc1ccc2c(S(=O)(=O)n3nc(Nc4ccc(C#N)c(Cl)c4)nc3N)cccc2c1 [Compound 5, 5-[[5-amino-3-(3-chloro-4-cyano-anilino)-1,2,4-triazol-1-yl]sulfonyl]naphthalene-2-carbonitrile]
IC50 (HIV-1 IIIB (wild-type); [4]): 0.42 ± 0.0777 nM
IC50 (HIV-1 IIIB (wild-type); Table 4, TZM-bl): 0.428 nM
IC50 [1, 5]: 39.6 ± 18.2 nM
IC50 [1, 6]: 15.7 nM
CC50 at 48 h ([2]; Table 4, TZM-bl, read-out: CC50 (TZM)): 6010 nM
Qualitative Cell Toxicity within inhibition range (TZM-bl cells; Table 3, TZM-bl): None
Quantitative Cell Toxicity (TZM-bl cells; Table 3, TZM-bl): 1710 nM
EC50 [3]: 1710 nM

N#Cc1ccc(Nc2nc(N)n(S(=O)(=O)c3cccc4cc(C#N)ccc34)n2)cc1 [Compound 2, 5-[[5-amino-3-(4-cyanoanilino)-1,2,4-triazol-1-yl]sulfonyl]naphthalene-2-carbonitrile]
IC50 (HIV-1 IIIB (wild-type); [4]): 1.11 ± 0.198 nM
IC50 (HIV-1 IIIB (wild-type); Table 4, TZM-bl): 0.316 nM
IC50 [1, 5]: 55 ± 4.01 nM
IC50 [1, 6]: 24.4 nM
CC50 at 48 h [2]: 7550 nM
Qualitative Cell Toxicity within inhibition range (TZM-bl cells): None
Quantitative Cell Toxicity (TZM-bl cells; human, 48 h): 578 nM
EC50 [3]: 578 nM

N#Cc1ccc2c(S(=O)(=O)n3nc(Nc4ccc(C#N)c(C#N)c4)nc3N)cccc2c1 [Compound 14, 4-[[5-amino-1-[(6-cyano-1-naphthyl)sulfonyl]-1,2,4-triazol-3-yl]amino]phthalonitrile]
IC50 (HIV-1 IIIB (wild-type); [4]): 0.684 ± 0.077 nM
IC50 (HIV-1 IIIB (wild-type); Table 4, TZM-bl): 0.318 nM
IC50 [1, 5]: 37.2 ± 15.4 nM
IC50 [1, 6]: 31.7 nM
CC50 at 48 h [2]: 31800 nM
Qualitative Cell Toxicity within inhibition range (TZM-bl cells): None
Quantitative Cell Toxicity (TZM-bl cells; human, 48 h): 1350 nM
EC50 [3]: 1350 nM

N#C/C=C/c1ccc2c(S(=O)(=O)n3nc(Nc4ccc(CC#N)cc4)nc3N)cccc2c1 [Compound 21, 3-[5-[[5-amino-3-[4-(cyanomethyl)anilino]-1,2,4-triazol-1-yl]sulfonyl]-2-naphthyl]prop-2-enenitrile]
IC50 (HIV-1 IIIB (wild-type); [4]): 0.255 ± 0.035 nM
IC50 (HIV-1 IIIB (wild-type); Table 4, TZM-bl): 0.228 nM
IC50 [1, 5]: 5.42 ± 1.39 nM
IC50 [1, 6]: 13.8 nM
CC50 at 48 h [2]: 747 nM
Qualitative Cell Toxicity within inhibition range (TZM-bl cells): None
Quantitative Cell Toxicity (TZM-bl cells; human, 48 h): 747 nM
EC50 [3]: 10900 nM

Cc1cc(C#N)ccc1Nc1nc(N)n(S(=O)(=O)c2cccc3cc(C#N)ccc23)n1 [Compound 4, 5-[[5-amino-3-(4-cyano-2-methyl-anilino)-1,2,4-triazol-1-yl]sulfonyl]naphthalene-2-carbonitrile]
IC50 (HIV-1 IIIB (wild-type); [4]): 13.8 ± 2.64 nM
IC50 [1, 5]: 287 ± 69.5 nM
Qualitative Cell Toxicity within inhibition range (TZM-bl cells): None

Nc1nc(Nc2ccc(Cl)cc2)nn1S(=O)(=O)c1ccc(Br)s1 [Compound 40, 1-[(5-bromo-2-thienyl)sulfonyl]-N3-(4-chlorophenyl)-1,2,4-triazole-3,5-diamine]
IC50 (HIV-1 IIIB (wild-type); [4]): 15.1 ± 3.12 nM
IC50 [1, 5]: > 1000 nM
Qualitative Cell Toxicity within inhibition range (TZM-bl cells): None

N#Cc1ccc(Nc2nc(N)n(S(=O)(=O)c3c(Cl)nc4sccn34)n2)cc1 [Compound 8, 4-[[5-amino-1-(6-chloroimidazo[2,1-b]thiazol-5-yl)sulfonyl-1,2,4-triazol-3-yl]amino]-benzonitrile]
IC50 (HIV-1 IIIB (wild-type); [4]): 1.77 ± 0.327 nM
IC50 [1, 5]: 705 ± 1010 nM
Qualitative Cell Toxicity within inhibition range (TZM-bl cells): None

N#Cc1ccc(Nc2nc(N)n(S(=O)(=O)c3c(Cl)nc4sccn34)n2)cc1C#N [Compound 51, 4-[[5-amino-1-(6-chloroimidazo[2,1-b]thiazol-5-yl)sulfonyl-1,2,4-triazol-3-yl]amino]-phthalonitrile]
IC50 (HIV-1 IIIB (wild-type); [4]): 0.223 ± 0.055 nM
IC50 [1, 5]: > 1000 nM
Qualitative Cell Toxicity within inhibition range (TZM-bl cells): None

N#Cc1ccc(Nc2nc(N)n(S(=O)(=O)c3cccc(C#N)c3)n2)cc1 [Compound 9, 3-[[5-amino-3-(4-cyanoanilino)-1,2,4-triazol-1-yl]sulfonyl]benzonitrile]
IC50 (HIV-1 IIIB (wild-type); [4]): 105 ± 24.3 nM
IC50 [1, 5]: 709 ± 331 nM
Qualitative Cell Toxicity within inhibition range (TZM-bl cells): None

Cc1nn(C)c(Cl)c1S(=O)(=O)n1nc(Nc2ccc(C#N)c(Cl)c2)nc1N [Compound 17, 4-[[5-amino-1-(5-chloro-1,3-dimethyl-pyrazol-4-yl)sulfonyl-1,2,4-triazol-3-yl]amino]-2-chloro-benzonitrile]
IC50 (HIV-1 IIIB (wild-type)): 0.305 ± 0.053 nM
IC50 [1, 5]: 905 ± 392 nM
Qualitative Cell Toxicity within inhibition range (TZM-bl cells; Table 3, TZM-bl): None

N#CCc1ccc(Nc2nc(N)n(S(=O)(=O)c3cccc4cc(C#N)ccc34)n2)cc1 [Compound 13, 5-[[5-amino-3-[4-(cyanomethyl)anilino]-1,2,4-triazol-1-yl]sulfonyl]naphthalene-2-carbonitrile]
IC50 (HIV-1 IIIB (wild-type); [4]): 0.277 ± 0.0367 nM
IC50 [1, 5]: 42.9 ± 34.7 nM
Qualitative Cell Toxicity within inhibition range (TZM-bl cells): None

Nc1nc(Nc2ccc(Cl)cc2)nn1S(=O)(=O)c1ccc(F)c(F)c1F [Compound 39, N3-(4-chlorophenyl)-1-(2,3,4-trifluorophenyl)sulfonyl-1,2,4-triazole-3,5-diamine]
IC50 (HIV-1 IIIB (wild-type); [4]): 575 ± 104 nM
IC50 [1, 5]: > 1000 nM
Qualitative Cell Toxicity within inhibition range (TZM-bl cells): None

CC(=O)Nc1nc(C)c(S(=O)(=O)n2nc(Nc3ccc(CC#N)cc3)nc2N)s1 [Compound 50, N-[5-[[5-amino-3-[4-(cyanomethyl)anilino]-1,2,4-triazol-1-yl]sulfonyl]-4-methyl-thiazol-2-yl]acetamide]
IC50 (HIV-1 IIIB (wild-type); [4]): 19.4 ± 3.8 nM
IC50 [1, 5]: > 1000 nM
Qualitative Cell Toxicity within inhibition range (TZM-bl cells): None

CC(C)(C)c1ccc(S(=O)(=O)n2nc(Nc3ccc(Cl)cc3)nc2N)cc1 [Compound 6, 1-(4-tert-butylphenyl)sulfonyl-N3-(4-chlorophenyl)-1,2,4-triazole-3,5-diamine]
IC50 (HIV-1 IIIB (wild-type); [4]): 70.2 ± 10.5 nM
IC50 [1, 5]: 295 ± 56.5 nM
Qualitative Cell Toxicity within inhibition range (TZM-bl cells): None

Cc1c(S(=O)(=O)n2nc(Nc3ccc(C#N)cc3)nc2N)sc2ccc(Cl)cc12 [Compound 48, 4-[[5-amino-1-(5-chloro-3-methyl-benzothiophen-2-yl)sulfonyl-1,2,4-triazol-3-yl]amino]benzonitrile]
IC50 (HIV-1 IIIB (wild-type); [4]): 14 ± 2.44 nM
IC50 [1, 5]: > 1000 nM
Qualitative Cell Toxicity within inhibition range (TZM-bl cells): None

Cc1nc(C)c(S(=O)(=O)n2nc(Nc3ccc(Cl)cc3)nc2N)s1 [Compound 36, N3-(4-chlorophenyl)-1-(2,4-dimethylthiazol-5-yl)sulfonyl-1,2,4-triazole-3,5-diamine]
IC50 (HIV-1 IIIB (wild-type); [4]): 44.1 ± 12.8 nM
IC50 [1, 5]: > 1000 nM
Qualitative Cell Toxicity within inhibition range (TZM-bl cells): None

CC(=O)Nc1nc(C)c(S(=O)(=O)n2nc(Nc3cc(Cl)c(Cl)cc3Cl)nc2N)s1 [Compound 44, N-[5-[[5-amino-3-(2,4,5-trichloroanilino)-1,2,4-triazol-1-yl]sulfonyl]-4-methyl-thiazol-2-yl]acetamide]
IC50 (HIV-1 IIIB (wild-type); [4]): 165 ± 121 nM
IC50 [1, 5]: > 1000 nM
Qualitative Cell Toxicity within inhibition range (TZM-bl cells): None

N#Cc1cccc(S(=O)(=O)n2nc(Nc3c(Cl)cc(Cl)cc3Cl)nc2N)c1 [Compound 43, 3-[[5-amino-3-(2,4,6-trichloroanilino)-1,2,4-triazol-1-yl]sulfonyl]benzonitrile]
IC50 (HIV-1 IIIB (wild-type); [4]): 33.7 ± 9.93 nM
IC50 [1, 5]: > 1000 nM
Qualitative Cell Toxicity within inhibition range (TZM-bl cells): None

Nc1nc(Nc2ccc(Cl)c(Cl)c2)nn1S(=O)(=O)c1cccc2ccccc12 [Compound 22, N3-(3,4-dichlorophenyl)-1-(1-naphthylsulfonyl)-1,2,4-triazole-3,5-diamine]
IC50 (HIV-1 IIIB (wild-type)): 4.68 ± 0.572 nM
IC50 [1, 5]: > 1000 nM
Qualitative Cell Toxicity within inhibition range (TZM-bl cells; Table 3, TZM-bl): None
